The values below are quoted from earlier work in patent US20070197486A1, “Methods and systems for the delivery of corticosteroids” (Verus Pharmaceuticals, Inc., priority 2005, published 2007).

Read-outs that look alike come from different tables or passages of the source.

With `CCCC1O[C@@H]2C[C@H]3[C@@H]4CCC5=CC(=O)C=C[C@]5(C)[C@H]4[C@@H](O)C[C@]3(C)[C@]2(C(=O)CO)O1` (stereo partly drawn) [budesonide, (R,S)-11β,16α,17,21-tetrahydroxypregna-1,4-diene-3,20-dione cyclic 16,17-acetal with butyraldehyde], the solubility result (in alcohols) is “readily soluble” and the solubility result (in water) is “virtually insoluble”.
